Assays:
[1] = tested on: Arg2; experiment: Arg2 gene expression in cultured primary hepatocytes (RNA-seq, qPCR); assay type: cell-based, murine
Text: AML12 cells (CRL-2254) were purchased directly from the American Type Culture Collection (ATCC) and propagated and maintained precisely per manufacturer specification. Primary hepatocyte cell isolation, culture and treatment Primary murine hepatocytes obtained from WT mice were isolated^24,25,31 and cultured and maintained in regular DMEM growth media (Sigma, #D5796) containing 10% FBS. For in vitro starvation experiments, “starved” media contained 1 g/L glucose and 0:5% FBS was used. Cultures were lysed in Trizol and subjected to downstream analysis. In vitro genetic knockdown was achieved via siRNA transfection using Lipofectamine 3000 from Invitrogen (L3000015). Trehalose was obtained from Sigma Aldrich (St. Louis, MO) and was >97% purity by HPLC. Three percent trehalose water (w/v) fed ad libitum was used in all in vivo experiments.
Total RNA was prepared by homogenizing snap-frozen livers or cultured hepatocytes in Trizol reagent (Invitrogen #15596026) according to the manufacturer's protocol. cDNA was prepared using Qiagen Quantitect reverse transcriptase kit (Qiagen #205310). Real-time qPCR was performed with Step-One Plus Real-Time PCR System (Applied Biosystems) using SYBR Green master Mix Reagent (Applied Biosystems) and specific primer pairs. Relative gene expression was calculated by a comparative method using values normalized to the expression of an internal control gene.

[2] = tested on: Arg2; experiment: Hepatic Arg2 expression by qPCR and immunoblot in mice subjected to trehalose feeding; assay type: in vivo; settings: mice fed 3% trehalose water ad libitum, 5 days
Text: AML12 cells (CRL-2254) were purchased directly from the American Type Culture Collection (ATCC) and propagated and maintained precisely per manufacturer specification. Primary hepatocyte cell isolation, culture and treatment Primary murine hepatocytes obtained from WT mice were isolated^24,25,31 and cultured and maintained in regular DMEM growth media (Sigma, #D5796) containing 10% FBS. For in vitro starvation experiments, “starved” media contained 1 g/L glucose and 0:5% FBS was used. Cultures were lysed in Trizol and subjected to downstream analysis. In vitro genetic knockdown was achieved via siRNA transfection using Lipofectamine 3000 from Invitrogen (L3000015). […]
Total RNA was prepared by homogenizing snap-frozen livers or cultured hepatocytes in Trizol reagent (Invitrogen #15596026) according to the manufacturer's protocol. cDNA was prepared using Qiagen Quantitect reverse transcriptase kit (Qiagen #205310). […] Relative gene expression was calculated by a comparative method using values normalized to the expression of an internal control gene.
Tissues were homogenized in RIPA buffer supplemented with protease and phosphatase inhibitors (Thermo Scientific). […] Protein concentration was determined by BCA Assay Kit (Thermo Scientific) and was adjusted to 2 mg/mL. […] Protein expression levels were quantified with Image Lab software and normalized to the levels of β-actin or GAPDH.

[3] = read-out: Km for arginine; cited from earlier work

Molecule: OCC1OC(OC2OC(CO)C(O)C(O)C2O)C(O)C(O)C1O (centres unmarked) [Lactotrehalose, lactotrehalose]
- Arg2 expression compared with native trehalose at equivalent doses ([1]; primary hepatocytes, 10 mM and 100 mM): significantly enhanced

Molecule: OC[C@H]1O[C@H](O[C@H]2O[C@H](CO)[C@@H](O)[C@H](O)[C@H]2O)[C@H](O)[C@@H](O)[C@@H]1O [trehalose]
- Arg2 induction by qPCR and immunoblot ([1]; primary hepatocytes, 1 mM, 10 mM, and 100 mM, within 24 h): rapid, dose-dependent, cell autonomous Arg2 induction
- Arg2 expression by RNA-seq ([1]; trehalose-treated primary hepatocytes relative to untreated hepatocytes): among the most highly upregulated genes
- hepatic Arg2 mRNA and protein [2]: induced Arg2 mRNA and protein

B1: human arginase 1: human arginase 1 enzyme (protein, UniProt P05089 1-322, looked up)
Arginase-1: MSAKSRTIGIIGAPFSKGQPRGGVEEGPTVLRKAGLLEKLKEQECDVKDYGDLPFADIPNDSPFQIVKNPRSVGKASEQLAGKVAEVKKNGRISLVLGGDHSLAIGSISGHARVHPDLGVIWVDAHTDINTPLTTTSGNLHGQPVSFLLKELKGKIPDVPGFSWVTPCISAKDIVYIGLRDVDPGEHYILKTLGIKYFSMTEVDRLGIGKVMEETLSYLLGRKKRPIHLSFDVDGLDPSFTPATGTPVVGGLTYREGLYITEEIYKTGLLSGLDIMEVNPSLGKTPEEVTRTVNTAVAITLACFGLAREGNHKPIDYLNPPK
- Km [3]: ~45 mM

Source: patent US12508306B2, “Compositions and methods of use thereof for treatment of metabolic diseases and related disorders” (Washington University, priority 2018, dated 2025)
